Source: patent publication US7202228B2, “Hydrogelation agents” (Japan Science and Technology Agency, priority 2001, dated 2007)

Assays:
[1] = Gelatinizing ability in aqueous solutions of varying pH (gel formation observed); assay type: physicochemical; parameters: key to formation of a gel, pH 168 / formation of a gel, pH 401 / formation of a gel, pH 755 / formation of a gel, pH 918 / formation of a gel, milliQ water: the formation of gel is indicated by “G”; partial formation of gel is indicated by “LG”; unchanged aqueous solution is indicated by “S”; the formation of a precipitate is indicated by “P”; insolubility is indicated by “I”; settings: for formation of a gel, pH 401: 10 mg compound in 0.5 ml buffer solution pH 401; for formation of a gel, pH 401 / formation of a gel, pH 755 / formation of a gel, pH 918 / formation of a gel, pH 168 / formation of a gel, milliQ water: 60° C. or more, ultrasound one hour, then room temperature; for formation of a gel, pH 755: 10 mg compound in 0.5 ml buffer solution pH 755; for formation of a gel, pH 918: 10 mg compound in 0.5 ml buffer solution pH 918; for formation of a gel, pH 168: 10 mg compound in 0.5 ml buffer solution; for formation of a gel, milliQ water: 10 mg compound in 0.5 ml milliQ water (distilled water); for solidification of milliQ water (distilled water) or water of pH 4–9: concentration of hydrogelatinizer 2wt %
Protocol: The gelatinizing ability was examined for aqueous solutions, of varying pH, of Compounds 1–7 synthesized in Manufacturing Examples 1–7. 10 mg of these compounds was placed in a sample bottle together with 0.5 ml of buffer solution adjusted to various pH, and while maintaining the temperature at 60° C. or more, the mixture was irradiated with ultrasound for one hour. After leaving the resulting aqueous solution at room temperature, the formation of a gel was observed.
In the table, the formation of gel is indicated by “G”, partial formation of gel is indicated by “LG”, unchanged aqueous solution is indicated by “S”, the formation of a precipitate is indicated by “P”, and insolubility is indicated by “I”.

[2] = Hydrogel formation in water (dissolve at 60° C. or more, leave at room temperature); assay type: physicochemical; settings: left at room temperature
Protocol: Next, the method of manufacturing a hydrogel will be described. The gelatinizer of the invention is dissolved in an aqueous solution. A weakly acidic (pH 4) or weakly alkaline (pH 10) aqueous solution is preferred from the viewpoint of solubility. If the pH of the aqueous solution is less than 4, all of the phosphoric acid part is protonated, and it is difficult to dissolve in water. If the pH is higher than 10, the phosphoric acid part dissociates, and remains dissociated so that the water is not solidified. After dissolving the compound in the aqueous solution with heating, it is gradually cooled to room temperature and allowed to stand. In the dissolution process, heat alone is sufficient if the compound can be completely dissolved. If necessary, the compound can be efficiently converted to a simple dispersion in an aqueous solvent by ultrasound. The heating time is of the order of 30 minutes to 2 hours, but to ensure that dissolution of the compound is complete, it is preferably one hour or more. When the aqueous solution in which the compound has been dissolved is gradually cooled in air, and left at room temperature, the aqueous solution solidifies within one day-several days, and forms a hydrogel. […] The fluidity of the resulting gel may be varied by adjusting the pH of the water and the concentration of the gelatinizer during manufacture. In general, the formation of the hydrogel may be observed with the naked eye, but if the microstructure of the gel is observed using an optical microscope or scanning electron microscope, it can be seen that extremely fine fibers of the order of nanometers are entangled together to form a lattice structure.

[3] = 100 mg in 0.5 ml of water, dissolved at 60° C. or more

Compound | formation of a gel, pH 401 [1] | formation of a gel, pH 755 [1] | formation of a gel, pH 918 [1] | formation of a gel, pH 168 [1] | formation of a gel, milliQ water [1] | hydrogel formation [2, 3] | solidification of milliQ water (distilled water) or water of pH 4–9 [1] | hydrogel formation ([2]; 1 mg in 0.5 ml of water, 60° C. or more, ultrasound one hour)
Cc1cn([C@H]2C[C@H](OP(=O)(O)OCCCCCCCCCCCCOP(=O)(O)O[C@H]3C[C@H](n4cc(C)c(=O)[nH]c4=O)O[C@@H]3CO)[C@@H](CO)O2)c(=O)[nH]c1=O [Compound 1, 1,12-(dodecanedioxy)bis(3′-phosphatidyl-2′-deoxythymidine)] | S | S | S | I | S | solidified after several days | – | –
Cc1cn([C@H]2C[C@H](OP(=O)(O)OCCCCCCCCCCCCCOP(=O)(O)O[C@H]3C[C@H](n4cc(C)c(=O)[nH]c4=O)O[C@@H]3CO)[C@@H](CO)O2)c(=O)[nH]c1=O [Compound 2, 1,13-(tridecanedioxy)bis-(3′-phosphatidyl-2′-deoxythymidine)] | S | S | S | I | S | a hydrogel was obtained | – | –
Cc1cn(C2CC(OP(=O)(O)OCCCCCCCCCCCCCCOP(=O)(O)OC3CC(n4cc(C)c(=O)[nH]c4=O)OC3CO)C(CO)O2)c(=O)[nH]c1=O (stereo not shown) [Compound 3, 1,14-(tetradecanedioxy)bis-(3′-phosphatidyl-2′-deoxythymidine)] | S | S | S | I | S | – | – | –
Cc1cn(C2CC(OP(=O)(O)OCCCCCCCCCCCCCCCOP(=O)(O)OC3CC(n4cc(C)c(=O)[nH]c4=O)OC3CO)C(CO)O2)c(=O)[nH]c1=O (stereo not shown) [Compound 4, 1,15-(pentadecanedioxy)-bis(3′-phosphatidyl-2′-deoxythymidine)] | S | S | S | I | P | – | – | –
Cc1cn([C@H]2C[C@H](OP(=O)(O)OCCCCCCCCCCCCCCCCOP(=O)(O)O[C@H]3C[C@H](n4cc(C)c(=O)[nH]c4=O)O[C@@H]3CO)[C@@H](CO)O2)c(=O)[nH]c1=O [Compound 5, 1,16-(hexadecanedioxy)-bis(3′-phosphatidyl-2′-deoxythymidine)] | S | S | S | I | P | – | – | –
Cc1cn([C@H]2C[C@H](OP(=O)(O)OCCCCCCCCCCCCCCCCCCOP(=O)(O)O[C@H]3C[C@H](n4cc(C)c(=O)[nH]c4=O)O[C@@H]3CO)[C@@H](CO)O2)c(=O)[nH]c1=O [Compound 6, 1,18-(octadecanedioxy)bis-(3′-phosphatidyl-2′-deoxythymidine)] | P | P | S | I | G | – | efficiently solidified | –
Cc1cn([C@H]2C[C@H](OP(=O)(O)OCCCCCCCCCCCCCCCCCCCCOP(=O)(O)O[C@H]3C[C@H](n4cc(C)c(=O)[nH]c4=O)O[C@@H]3CO)[C@@H](CO)O2)c(=O)[nH]c1=O [Compound 7, 1,20-(icosanedioxy)bis-(3′-phosphatidyl-2′-deoxythymidine)] | LG | G | G | I | G | – | efficiently solidified | solidified after several days
